Measured values published in article PMC9025901, “New Genetic Bomb Trigger: Design, Synthesis, Molecular Dynamics Simulation, and Biological Evaluation of Novel BIBR1532-Related Analogs Targeting Telomerase against Non-Small Cell Lung Cancer” (Pharmaceuticals, 2022).

Columns and labels:
[1] = set-up: method as in PMID 18256617, PMID 32733068, PMID 32125789; settings: cited from earlier work
[2] = biological target: T1, telomerase (Homo sapiens, UniProt O14746); test: TRAP / RTQ-TRAP telomerase activity assay in A549 cell-free lysates; format: biochemical; settings: telomerase inhibition, mean ± SEM;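 also: telomerase activity measured in cell-free extracts of human A549 epithelial lung carcinoma cells, tested across a range of inhibitor concentrations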
T1 construct: A549 cells (human epithelial cell lung carcinoma, ATCC, Manassas, VA) were lysed in; host or cells: A549 cell lysate (CHAPS extract, 5 µg total protein)

[3] = system: advanced non-small cell lung cancer; set-up: method as in PMID 32733068, PMID 25467017; settings: phase II clinical trials, patients with advanced non-small cell lung cancer; cited from earlier work
[4] = biological target: T2, telomerase inside living cancer cells HCC44 (Homo sapiens, UniProt O14746); test: Living-cell TRAP assay, HCC44; format: cell-based; settings: percent of control cells, 10 µM, 48 h
T2 construct: host or cells: HCC44

[5] = biological target: T3, telomerase inside living cancer cells NCI-H23 (Homo sapiens, UniProt O14746); test: Living-cell TRAP assay, NCI-H23; format: cell-based; settings: percent of control cells, 10 µM, 48 h
T3 construct: host or cells: NCI-H23

[6] = biological target: T4, telomerase inside living cancer cells A549 (Homo sapiens, UniProt O14746); test: Living-cell TRAP assay, A549; format: cell-based; settings: percent of control cells, 10 µM, 48 h
T4 construct: host or cells: A549
T4 sequence (O14746 whole entry): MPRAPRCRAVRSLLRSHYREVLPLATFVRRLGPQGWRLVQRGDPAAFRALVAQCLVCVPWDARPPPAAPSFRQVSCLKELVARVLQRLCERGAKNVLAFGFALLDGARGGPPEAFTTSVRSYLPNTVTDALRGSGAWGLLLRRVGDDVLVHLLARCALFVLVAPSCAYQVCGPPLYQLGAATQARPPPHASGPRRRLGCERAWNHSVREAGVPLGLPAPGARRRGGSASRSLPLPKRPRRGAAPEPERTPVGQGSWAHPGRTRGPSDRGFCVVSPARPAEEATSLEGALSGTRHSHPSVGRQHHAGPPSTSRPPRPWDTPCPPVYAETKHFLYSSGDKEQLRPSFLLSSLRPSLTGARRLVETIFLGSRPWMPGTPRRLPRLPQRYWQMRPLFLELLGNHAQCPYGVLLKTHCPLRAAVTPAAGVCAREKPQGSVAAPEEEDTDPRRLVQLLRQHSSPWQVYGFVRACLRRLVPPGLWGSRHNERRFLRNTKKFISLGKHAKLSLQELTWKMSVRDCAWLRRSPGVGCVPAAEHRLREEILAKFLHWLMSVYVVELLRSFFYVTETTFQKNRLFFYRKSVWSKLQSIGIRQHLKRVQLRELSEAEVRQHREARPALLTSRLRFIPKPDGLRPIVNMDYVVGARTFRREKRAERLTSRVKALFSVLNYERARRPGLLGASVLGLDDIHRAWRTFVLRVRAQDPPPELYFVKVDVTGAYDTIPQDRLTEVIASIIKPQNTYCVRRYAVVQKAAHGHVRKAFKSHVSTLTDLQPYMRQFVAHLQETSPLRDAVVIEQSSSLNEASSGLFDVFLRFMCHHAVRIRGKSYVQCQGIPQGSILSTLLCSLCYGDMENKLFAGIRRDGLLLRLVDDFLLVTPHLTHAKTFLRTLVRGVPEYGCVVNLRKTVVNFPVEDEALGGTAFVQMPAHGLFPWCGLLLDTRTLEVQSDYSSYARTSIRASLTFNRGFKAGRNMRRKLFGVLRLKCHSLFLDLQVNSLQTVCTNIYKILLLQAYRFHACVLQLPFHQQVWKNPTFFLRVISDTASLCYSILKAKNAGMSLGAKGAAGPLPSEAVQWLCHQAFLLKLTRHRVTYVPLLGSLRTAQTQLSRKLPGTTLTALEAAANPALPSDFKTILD
T4 sequence (O60832 whole entry partner): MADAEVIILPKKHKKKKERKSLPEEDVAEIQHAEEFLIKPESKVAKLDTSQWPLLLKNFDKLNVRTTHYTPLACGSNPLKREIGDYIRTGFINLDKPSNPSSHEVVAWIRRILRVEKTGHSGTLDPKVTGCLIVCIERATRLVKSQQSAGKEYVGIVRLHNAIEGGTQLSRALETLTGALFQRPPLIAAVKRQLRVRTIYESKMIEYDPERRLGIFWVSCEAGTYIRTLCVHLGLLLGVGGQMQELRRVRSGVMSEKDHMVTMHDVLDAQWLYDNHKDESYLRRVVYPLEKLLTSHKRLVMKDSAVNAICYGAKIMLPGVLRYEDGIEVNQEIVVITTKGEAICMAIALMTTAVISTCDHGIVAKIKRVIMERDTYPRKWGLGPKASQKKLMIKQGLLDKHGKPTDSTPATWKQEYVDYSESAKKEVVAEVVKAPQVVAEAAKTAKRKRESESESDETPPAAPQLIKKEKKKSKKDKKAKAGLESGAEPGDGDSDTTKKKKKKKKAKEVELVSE
T4 sequence (Q9NX24 whole entry partner): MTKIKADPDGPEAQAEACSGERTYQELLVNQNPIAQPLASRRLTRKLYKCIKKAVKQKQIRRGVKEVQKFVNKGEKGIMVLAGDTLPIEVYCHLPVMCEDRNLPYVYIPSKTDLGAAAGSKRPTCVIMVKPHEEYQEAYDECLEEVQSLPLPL
T4 sequence (Q9NPE3 whole entry partner): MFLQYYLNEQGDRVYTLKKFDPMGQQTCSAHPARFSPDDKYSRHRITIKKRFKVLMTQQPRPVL
T4 sequence (Q9NY12 whole entry partner): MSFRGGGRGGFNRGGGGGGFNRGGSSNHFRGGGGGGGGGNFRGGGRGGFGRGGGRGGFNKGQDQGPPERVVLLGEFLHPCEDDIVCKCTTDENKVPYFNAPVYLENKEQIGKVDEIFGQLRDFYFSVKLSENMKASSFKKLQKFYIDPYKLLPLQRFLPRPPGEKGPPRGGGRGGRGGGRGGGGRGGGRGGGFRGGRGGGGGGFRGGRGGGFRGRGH
T4 sequence (Q9BUR4 whole entry partner): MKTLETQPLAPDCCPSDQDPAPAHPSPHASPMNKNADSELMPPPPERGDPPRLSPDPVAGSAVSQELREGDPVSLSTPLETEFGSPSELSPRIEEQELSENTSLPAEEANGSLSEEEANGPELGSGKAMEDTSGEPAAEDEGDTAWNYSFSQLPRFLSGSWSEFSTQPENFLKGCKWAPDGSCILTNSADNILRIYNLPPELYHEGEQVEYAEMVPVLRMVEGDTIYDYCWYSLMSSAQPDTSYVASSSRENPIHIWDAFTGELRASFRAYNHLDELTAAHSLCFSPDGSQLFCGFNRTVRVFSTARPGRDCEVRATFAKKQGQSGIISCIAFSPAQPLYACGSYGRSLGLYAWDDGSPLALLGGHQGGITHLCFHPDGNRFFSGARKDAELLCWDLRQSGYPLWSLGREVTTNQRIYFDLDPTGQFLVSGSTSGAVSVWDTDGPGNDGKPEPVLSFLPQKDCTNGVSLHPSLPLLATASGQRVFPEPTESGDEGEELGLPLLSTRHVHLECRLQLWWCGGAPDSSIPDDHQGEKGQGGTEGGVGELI

T1 sequence (O14746 whole entry): as the sequence (O14746 whole entry) above
T1 sequence (O60832 whole entry partner): as the sequence (O60832 whole entry partner) above
T1 sequence (Q9NX24 whole entry partner): as the sequence (Q9NX24 whole entry partner) above
T1 sequence (Q9NPE3 whole entry partner): as the sequence (Q9NPE3 whole entry partner) above
T1 sequence (Q9NY12 whole entry partner): as the sequence (Q9NY12 whole entry partner) above
T1 sequence (Q9BUR4 whole entry partner): as the sequence (Q9BUR4 whole entry partner) above
T3 sequence (O14746 whole entry): as the sequence (O14746 whole entry) above
T3 sequence (O60832 whole entry partner): as the sequence (O60832 whole entry partner) above
T3 sequence (Q9NX24 whole entry partner): as the sequence (Q9NX24 whole entry partner) above
T3 sequence (Q9NPE3 whole entry partner): as the sequence (Q9NPE3 whole entry partner) above
T3 sequence (Q9NY12 whole entry partner): as the sequence (Q9NY12 whole entry partner) above
T3 sequence (Q9BUR4 whole entry partner): as the sequence (Q9BUR4 whole entry partner) above
T2 sequence (O14746 whole entry): as the sequence (O14746 whole entry) above
T2 sequence (O60832 whole entry partner): as the sequence (O60832 whole entry partner) above
T2 sequence (Q9NX24 whole entry partner): as the sequence (Q9NX24 whole entry partner) above
T2 sequence (Q9NPE3 whole entry partner): as the sequence (Q9NPE3 whole entry partner) above
T2 sequence (Q9NY12 whole entry partner): as the sequence (Q9NY12 whole entry partner) above
T2 sequence (Q9BUR4 whole entry partner): as the sequence (Q9BUR4 whole entry partner) above

Compound | IC90 [2] [µM] | % Telomerase Activity in Cancer Cells [4] [%] | % Telomerase Activity in Cancer Cells [5] [%] | IC50 [2] [µM] | % Telomerase Activity in Cancer Cells [6] [%] | melting point [°C] | cellular uptake [1] | pharmacokinetics [1] | overall survival [3]
C/C(=C\C(=O)Nc1ccccc1C(=O)O)c1ccc2ccccc2c1 [BIBR1532] | 5.6 ± 0.02 |  |  |  |  |  | low cellular uptake | poor pharmacokinetics | 
Imetelstat |  |  |  |  |  |  |  |  | no improvement in overall survival
N#C/C(=C\c1ccc(N2CCCCC2)cc1)C(=O)Nc1sc2c(c1C#N)CCC2 [Compound 29a, (2E)-2-Cyano-N-{3-cyano-4H,5H,6H-cyclopenta[b]thiophen-2-yl}-3-[4-(piperidin-1-yl)phenyl]prop-2-enamide] | 6.3 ± 0.3 | 66.1 ± 2.4 | 28.2 ± 3.9 | 1.7 ± 0.04 | 22.1 ± 4.8 |  |  |  | 
N#C/C(=C\c1ccc(N2CCCCC2)cc1)C(=O)Nc1sc2c(c1C#N)CCCC2 [Compound 29b, (2E)-2-Cyano-N-(3-cyano-4,5,6,7-tetrahydro-1-benzothiophen-2-yl)-3-[4-(piperidin-1-yl)phenyl]prop-2-enamide] | 32.8 ± 1.5 |  |  | 4.8 ± 0.2 |  | 262 to 264 |  |  | 
N#C/C(=C\c1cccc(Cl)c1Cl)C(=O)Nc1sc2c(c1C#N)CCC2 [Compound 28a, (2E/2Z)-2-Cyano-N-{3-cyano-4H,5H,6H-cyclopenta[b]thiophen-2-yl}-3-(2,3-dichlorophenyl)prop-2-enamide] | 67.8 |  |  | 6.7 ± 0.1 |  | 302 to 304 |  |  | 

Now from value to compound, other results behind:

IC90 [2] [µM] | % Telomerase Activity in Cancer Cells [4] [%] | % Telomerase Activity in Cancer Cells [5] [%] | IC50 [2] [µM] | % Telomerase Activity in Cancer Cells [6] [%] | melting point [°C] | Compound | cellular uptake [1] | pharmacokinetics [1] | overall survival [3]
574 |  |  | 178 ± 3.3 |  | 256 to 258 | Cc1nn(-c2ccccc2)cc1/C=C(\C#N)C(=O)Nc1sc2c(c1C#N)CCCC2 [Compound 33b, (2E)-2-Cyano-N-(3-cyano-4,5,6,7-tetrahydro-1-benzothiophen-2-yl)-3-(3-methyl-1-phenyl-1H-pyrazol-4-yl)prop-2-enamide] |  |  | 
7.1 ± 0.3 | 75.6 ± 7.9 | 50.3 ± 5.1 | 2 ± 0.03 | 41.5 ± 6.9 | 284 to 286 | N#C/C(=C\c1c[nH]c2ccccc12)C(=O)Nc1sc2c(c1C#N)CCCC2 [Compound 39b, (2E)-2-Cyano-N-(3-cyano-4,5,6,7-tetrahydro-1-benzothiophen-2-yl)-3-(1H-indol-3-yl)prop-2-enamide] |  |  | 
1080 |  |  | 189 ± 6.4 |  | 226 to 228 | N#C/C(=C\c1c[nH]nc1-c1ccccc1)C(=O)Nc1sc2c(c1C#N)CCC2 [Compound 34a, (2E)-2-Cyano-N-{3-cyano-4H,5H,6H-cyclopenta[b]thiophen-2-yl}-3-(3-phenyl-1H-pyrazol-4-yl)prop-2-enamide] |  |  | 
